Data from US20230099031A1, “BIFUNCTIONAL AGENTS FOR PROTEIN RECRUITMENT AND/OR DEGRADATION” (Orionis Biosciences, Inc., priority 2019, published 2023).
pEC50, pIC50: −log10 of the molar value.

Columns and labels:
DHFR = target: T1, DHFR (UniProt P0ABQ4+Q96SW2); test: Recruitment Assay (MAPPIT-like): DHFR recruitment to CRBN, pCLG-DHFR+pMG1-CRBN; format: cell-based, E. coli; conditions: HEK293T cells, luciferase 24 hours after compound treatment; read-out: Recruitment EC50 (M), target protein DHFR
T1 construct: Full size proteins are fused for each of the target proteins tested; expressed in transfected cells; host or cells: HEK293T
Procedure: (§1) In this experimental set-up, cells are transfected with a construct encoding a CRBN-fusion protein and another one encoding a substrate-fusion protein. Test compound activity is assessed with increasing concentrations of test compounds (dose-response studies) to monitor the ability to promote CRBN-ligand-induced protein interaction.
(§2) Full size proteins are fused for each of the target proteins tested, except in the case of IKZF1 where isoform 7 is used, and BRD4, where isoform 3 is applied. For the study, the following construct combinations are used: IKZF1 recruitment: pSEL-CRBN+pMG1-IKZF1(isoform 7); ASS1 recruitment: pSEL-CRBN+pMG1-ASS1; SALL4 recruitment: pSEL-SALL4+pMG1-CRBN; DHFR recruitment: pCLG-DHFR+pMG1-CRBN; ESR1 recruitment: pSEL-CRBN+pMG1-ESR1; BRD4 recruitment: pSEL-CRBN+pMG1-BRD4(isoform 3). Cells are treated with erythropoietin (Epo; where pSEL-type receptor fusions constructs are used) or leptin (in the case pCLG-type receptor fusion constructs are applied) without or with the indicated dose of test compound at 24 hours after transfection. Luciferase activity is measured 24 hours after test compound treatment using the Luciferase Assay System kit (PROMEGA, Madison, Wis.) with an Ensight plate reader (PERKIN ELMER LIFE SCIENCES, Waltham, Mass.). Data points depict fold induction of the average luciferase activity of triplicate samples from Epo or leptin+test compound treated cells versus Epo or leptin only treated cells. Error bars represent standard deviations. Curves are fit using 4-parameter nonlinear regression in […] PRISM software.
Error bars represent standard deviations and curves were fit using 4-parameter nonlinear regression in […] PRISM software.

SALL4 = target: T2, SALL4 (Homo sapiens, UniProt Q96SW2+Q9UJQ4); test: Recruitment Assay (MAPPIT-like): SALL4 recruitment, pSEL-SALL4+pMG1-CRBN; format: cell-based; conditions: recruitment of SALL4, protocol of Example 2; read-out: EC50_SALL4
T2 construct: Full size proteins are fused for each of the target proteins tested; expressed in transfected cells; host or cells: HEK293T
Procedure: as §1, §2

IKZF1 = target: T3, IKZF1 (Homo sapiens, UniProt Q13422+Q96SW2); test: Recruitment Assay (MAPPIT-like): IKZF1 recruitment, pSEL-CRBN+pMG1-IKZF1(isoform 7); format: cell-based; conditions: recruitment of IKZF1, protocol of Example 2; read-out: EC50_IKZF1
T3 construct: expressed in transfected cells; host or cells: HEK293T
Procedure: as §1, §2

ASS1 = target: T4, ASS1 (Homo sapiens, UniProt P00966+Q96SW2); test: Recruitment Assay (MAPPIT-like): ASS1 recruitment, pSEL-CRBN+pMG1-ASS1; format: cell-based; conditions: recruitment of ASS1, protocol of Example 2; for pEC50: read-out: EC50_ASS1
T4 construct: Full size proteins are fused for each of the target proteins tested; expressed in transfected cells; host or cells: HEK293T
Procedure: as §1, §2

CRBN = target: T5, CRBN (Homo sapiens, UniProt Q96SW2); test: Competition Assay: MAPPIT-like, competition with trimethoprim-lenalidomide hybrid ligand for binding to CRBN in HEK293T cells; format: cell-based; conditions: protocol and reagents of Example 1; read-out: IC50 Competition
T5 construct: expressed in transfected cells; host or cells: HEK293T

pEC50 (SALL4) | pEC50 (IKZF1) | pEC50 (ASS1) | pIC50 (CRBN) | EC50_ASS1 (M) (ASS1) | Structure (SMILES) | EC50 (DHFR)
6.24 | – | – | 6.21 | >> | N#Cc1cccc2c1CN(C1CCC(=O)NC1=O)C2=O (centres unmarked) [Compound C48003, 2-(2,6-dioxo-3-piperidyl)-1-oxo-isoindoline-4-carbonitrile] | –
6.37 | 5.79 | – | 5.87 | >> | N#Cc1ccc2c(c1)C(=O)N(C1CCC(=O)NC1=O)C2 (centres unmarked) [Compound C48007, 2-(2,6-dioxo-3-piperidyl)-3-oxo-isoindoline-5-carbonitrile] | –
7.21 | 5.91 | 6.04 | 7.61 | – | O=C1CCC(N2Cc3c(cccc3-c3ccccc3)C2=O)C(=O)N1 (centres unmarked) [Compound C48014, 3-(1-oxo-4-phenyl-isoindolin-2-yl)piperidine-2,6-dione] | –
7.23 | 5.82 | 5.77 | 6.72 | – | CC1c2ccccc2C(=O)N1C1CCC(=O)NC1=O (centres unmarked) [Compound C51383, 3-(1-methyl-3-oxo-isoindolin-2-yl)piperidine-2,6-dione] | –
7.48 | 6.91 | 6.16 | 6.15 | – | Nc1cccc2nnn(C3CCC(=O)NC3=O)c(=O)c12 (centres unmarked) [Compound C59904, 3-(5-amino-4-oxo-1,2,3-benzotriazin-3-yl)piperidine-2,6-dione] | –
7.53 | 6.24 | 6.05 | 6.97 | – | O=C1CCC(N2Cc3c(ccc4c3OCO4)C2=O)C(=O)N1 (centres unmarked) [Compound C67858, 3-(6-oxo-8H-[1,3]dioxolo[4,5-e]isoindol-7-yl)piperidine-2,6-dione] | –
6.50 | – | – | 6.25 | >> | O=C1CCC(N2Cc3cc4c(cc3C2=O)OCO4)C(=O)N1 (centres unmarked) [Compound C68126, 3-(7-oxo-5H-[1,3]dioxolo[4,5-f]isoindol-6-yl)piperidine-2,6-dione] | –
6.41 | – | 5.03 | 5.66 | – | N#Cc1ccc(Nc2ccc3c(c2)CN(C2CCC(=O)NC2=O)C3=O)nn1 (centres unmarked) [Compound C80378, 6-[[2-(2,6-dioxo-3-piperidyl)-1-oxo-isoindolin-5-yl]amino]pyridazine-3-carbonitrile] | –
8.00 | 5.75 | – | 6.12 | – | O=C1CCC(N2Cc3cc(Nc4ncc5c(n4)COC5)ccc3C2=O)C(=O)N1 (centres unmarked) [Compound C80380, 3-[5-(5,7-dihydrofuro[3,4-d]pyrimidin-2-ylamino)-1-oxo-isoindolin-2-yl]piperidine-2,6-dione] | –
6.36 | – | – | 5.48 | >> | O=C1CCC(N2C(=O)c3ccccc3C2O)C(=O)N1 (centres unmarked) [Compound C89940, 3-(1-hydroxy-3-oxo-isoindolin-2-yl)piperidine-2,6-dione] | –
> 7.86 | 5.89 | – | 6.84 | >> | CN(C)c1ccc2c(c1)CN(C1CCC(=O)NC1=O)C2=O (centres unmarked) [Compound C98103, 3-[5-(dimethylamino)-1-oxo-isoindolin-2-yl]piperidine-2,6-dione] | –
6.10 | 5.33 | – | 5.24 | >> | O=C(O)CN1CCN(Cc2ccc(COc3cccc4c3CN(C3CCC(=O)NC3=O)C4=O)cc2)CC1 (centres unmarked) [ZE26-0001, formic acid] | –

Continued, compound first:

Structure (SMILES) | pEC50 (SALL4) | pEC50 (IKZF1) | pEC50 (ASS1) | pIC50 (CRBN) | EC50_ASS1 (M) (ASS1) | EC50 (DHFR)
COc1cc(Cc2cnc(N)cc2N)cc(OC)c1OCCCCC(=O)NCCOCCOCCOCCNC(=O)COc1ccc2nc(C(=O)Cc3ccc4c(c3)C(=O)N(C3CCC(=O)NC3=O)C4)ccc2c1 (centres unmarked) [Compound 5.10] | – | – | – | – | – | 7.95e-08 M
COc1cc(Cc2cnc(N)nc2N)cc(OC)c1OCCCCC(=O)NCCOCCOCCOCCNC(=O)c1cccc(CNC(=O)CNc2ccc3c(c2)C(=O)N(C2CCC(=O)NC2=O)C3)c1 (centres unmarked) [Compound 5.12] | – | – | – | – | – | 3.55e-08 M
COc1cc(Cc2cnc(N)nc2N)cc(OC)c1OCCCCC(=O)NCCOCCOCCOCCNC(=O)COc1ccc(Br)c2c1C(=O)N(C1CCC(=O)NC1=O)C2 (centres unmarked) [Compound 5.13] | – | – | – | – | – | 4.69e-07 M
COc1cc(Cc2cnc(N)nc2N)cc(OC)c1OCCCCC(=O)NCCOCCOCCOCCNC(=O)c1ccc2ncnc(Nc3ccc4c(c3)C(=O)N(C3CCC(=O)NC3=O)C4)c2c1 (centres unmarked) [Compound 5.19] | – | – | – | – | – | 4.2e-09 M
COc1cc(Cc2cnc(N)nc2N)cc(OC)c1OCCCCC(=O)NCCOCCOCCOCCNC(=O)c1ccc2c(Nc3ccc4c(c3)C(=O)N(C3CCC(=O)NC3=O)C4)ncnc2c1 (centres unmarked) [Compound 5.20] | – | – | – | – | – | 1.01e-08 M
COc1cc(Cc2cnc(N)nc2N)cc(OC)c1OCCCCC(=O)NCCOCCOCCOCCNC(=O)Cn1cc(CN(C)C(=O)CNc2ccc3c(c2)C(=O)N(C2CCC(=O)NC2=O)C3)cn1 (centres unmarked) [Compound 5.23] | – | – | – | – | – | 1.19e-07 M
Cc1cccc2nnn(C3CCC(=O)NC3=O)c(=O)c12 (centres unmarked) [Compound C13247, 3-(5-methyl-4-oxo-1,2,3-benzotriazin-3-yl)piperidine-2,6-dione] | 6.40 | 5.54 | 5.07 | 5.64 | – | –
CS(=O)(=O)Nc1cccc2c1CN(C1CCC(=O)NC1=O)C2=O (centres unmarked) [Compound C22548, N-[2-(2,6-dioxo-3-piperidyl)-1-oxo-isoindolin-4-yl]methanesulfonamide] | 6.20 | 6.31 | – | 5.95 | >> | –
O=C1CCC(N2Cc3c(Cl)cccc3C2=O)C(=O)N1 (centres unmarked) [Compound C24031, 3-(4-chloro-1-oxo-isoindolin-2-yl)piperidine-2,6-dione] | > 7.86 | 7.23 | 6.59 | 7.94 | – | –
Cc1cccc2c1CN(C1CCC(=O)NC1=O)C2=O (centres unmarked) [Compound C28558, 3-(4-methyl-1-oxo-isoindolin-2-yl)piperidine-2,6-dione] | > 7.86 | 7.11 | 6.43 | 7.30 | – | –
Cc1ccc2c(c1)CN(C1CCC(=O)NC1=O)C2=O (centres unmarked) [Compound C28577, 3-(5-methyl-1-oxo-isoindolin-2-yl)piperidine-2,6-dione] | > 7.86 | 5.79 | 6.19 | 6.95 | – | –
O=C1CCCC(N2Cc3c(cccc3[N+](=O)[O-])C2=O)C(=O)N1 (centres unmarked) [Compound C29737, 3-(4-nitro-1-oxo-isoindolin-2-yl)azepane-2,7-dione] | – | 5.85 | – | – | – | –
O=C1CCC(N2Cc3c(NC(=O)Nc4cccc5c4CN(C4CCC(=O)NC4=O)C5=O)cccc3C2=O)C(=O)N1 (centres unmarked) [Compound C30231, 1,3-bis[2-(2,6-dioxo-3-piperidyl)-1-oxo-isoindolin-4-yl]urea] | 5.75 | 5.56 | – | 3.61 | >> | –
O=C1CCC(N2Cc3cc(NCC(=O)Nc4ccccc4)ccc3C2=O)C(=O)N1 (centres unmarked) [Compound C35797, 2-[[2-(2,6-dioxo-3-piperidyl)-1-oxo-isoindolin-5-yl]amino]-N-phenyl-acetamide] | 5.97 | 5.88 | – | 6.07 | >> | –
Cc1cccc2c(=O)n(C3CCC(=O)NC3=O)nnc12 (centres unmarked) [Compound C35830, 3-(8-methyl-4-oxo-1,2,3-benzotriazin-3-yl)piperidine-2,6-dione] | 6.23 | – | 5.25 | 5.46 | – | –
O=C(CNc1ccc2c(c1)CN(C1CCC(=O)NC1=O)C2=O)NCc1ccccc1 (centres unmarked) [Compound C35856, N-benzyl-2-[[2-(2,6-dioxo-3-piperidyl)-1-oxo-isoindolin-5-yl]amino]acetamide] | 6.73 | 5.94 | – | 6.32 | >> | –
N#CC1c2ccccc2C(=O)N1C1CCC(=O)NC1=O (centres unmarked) [Compound C39453, 2-(2,6-dioxo-3-piperidyl)-3-oxo-isoindoline-1-carbonitrile] | 6.06 | 4.77 | – | 5.12 | – | –
Nc1cccc2c1CN(C1CC(=O)NC1=O)C2=O (centres unmarked) [Compound C47930, 3-(4-amino-1-oxo-isoindolin-2-yl)pyrrolidine-2,5-dione] | – | 6.11 | – | – | – | –
O=C1CCC(N2Cc3ncccc3C2=O)C(=O)N1 (centres unmarked) [Compound C47959, 3-(5-oxo-7H-pyrrolo[3,4-b]pyridin-6-yl)piperidine-2,6-dione] | 6.36 | – | – | 5.59 | >> | –
O=C(O)CNc1ccc2c(c1)CN(C1CCC(=O)NC1=O)C2=O (centres unmarked) [Compound C47995, 2-[[2-(2,6-dioxo-3-piperidyl)-1-oxo-isoindolin-5-yl]amino]acetic acid] | 6.29 | – | – | 5.43 | >> | –
